One may read the IC50 as the concentration needed to halve the response being measured. A higher IC50 goes with weaker potency.

Among the data in ChEMBL document CHEMBL1158882, “Yardenone A and B: new cytotoxic triterpenes from the Indian Ocean sponge Axinella cf. bidderi” (J Nat Prod, 2003) are IC50 and Activity values, retold here.

Assay [1] is described as follows: (§1) Cytotoxicity against human NSCLC-N6-L16 cells. Format: functional, cell-based.
The species named for another assay is Homo sapiens. The description is as §1. Format: functional, cell-based.

Each structure is given as a SMILES string. Active and inactive are the calls of the source. The rule behind the calls is not given here. Bounds are passed on as bounds.

`C[C@H]1CC[C@@H]2OC(C)(C)C(=O)CC[C@@]2(C)[C@]12C[C@H](O)[C@@H]([C@@]1(C)CC[C@@H]3OC(C)(C)C(=O)CC[C@]31C)O2` [YARDENONE A] yielded an IC50 in assay [1] of more than 60 µM. Take `C[C@H]1CC[C@@H]2OC(C)(C)[C@H](O)CC[C@@]2(C)[C@]12C[C@H](O)[C@@H]([C@@]1(C)CC[C@@H]3OC(C)(C)C(=O)CC[C@]31C)O2` [YARDENONE B]: the IC50 in assay [1] is more than 31 µM. `CC1=C(CC[C@H]2[C@]3(C)CCC(=O)C(C)(C)O[C@H]3CC[C@]2(C)O)[C@@]2(C)CCC(=O)C(C)(C)C2=C(O)C1=O` [SODWANONE A] came in with a half-maximal inhibitory concentration (IC50) in assay [1] of 12 µM. For the compound `C[C@H]1CC[C@@H]2OC(C)(C)C(=O)CC[C@@]2(C)[C@]12CC[C@@H]([C@@]1(C)CC[C@@H]3OC(C)(C)C(=O)CC[C@]31C)O2`, in the assay filed under Homo sapiens, the result was inactive.
